Measurements as given in PubChem BioAssay (NCI).
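Results reflect a 48-hour exposure of cells in 96-well plates to compound at five concentrations. At the TGI there is no net growth.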

Legend:
Test in all cases: inhibition of tumour cell growth, NCI panel, 48 h
786-0 renal = system: 786-0 renal
A498 renal = system: A498 renal
A549 NSCLC = system: A549 NSCLC
ACHN renal = system: ACHN renal
CAKI-1 renal = system: CAKI-1 renal
CCRF-CEM leukemia = system: CCRF-CEM leukemia
COLO 205 colon = system: COLO 205 colon
DU-145 prostate = system: DU-145 prostate
EKVX NSCLC = system: EKVX NSCLC
HCC-2998 colon = system: HCC-2998 colon
HCT-116 colon = system: HCT-116 colon
HCT-15 colon = system: HCT-15 colon
HL-60(TB) leukemia = system: HL-60(TB) leukemia
HOP-62 NSCLC = system: HOP-62 NSCLC
HOP-92 NSCLC = system: HOP-92 NSCLC
HS 578T breast = system: HS 578T breast
HT29 colon = system: HT29 colon
IGROV1 ovarian = system: IGROV1 ovarian
K-562 leukemia = system: K-562 leukemia
KM12 colon = system: KM12 colon
LOX IMVI melanoma = system: LOX IMVI melanoma
M14 melanoma = system: M14 melanoma
MALME-3M melanoma = system: MALME-3M melanoma
MCF7 breast = system: MCF7 breast
MDA-MB-231 breast = system: MDA-MB-231 breast
MDA-MB-435 = system: MDA-MB-435
MDA-N = system: MDA-N
MOLT-4 leukemia = system: MOLT-4 leukemia
NCI-H226 lung = system: NCI-H226 lung
NCI-H23 lung = system: NCI-H23 lung
NCI-H460 lung = system: NCI-H460 lung
NCI-H522 lung = system: NCI-H522 lung
NCI/ADR-RES ovarian = system: NCI/ADR-RES ovarian
OVCAR-3 ovarian = system: OVCAR-3 ovarian
OVCAR-4 ovarian = system: OVCAR-4 ovarian
OVCAR-5 ovarian = system: OVCAR-5 ovarian
OVCAR-8 ovarian = system: OVCAR-8 ovarian
PC-3 prostate = system: PC-3 prostate
RPMI-8226 leukemia = system: RPMI-8226 leukemia
RXF 393 renal = system: RXF 393 renal
SF-268 CNS = system: SF-268 CNS
SF-295 CNS = system: SF-295 CNS
SF-539 CNS = system: SF-539 CNS
SK-MEL-2 melanoma = system: SK-MEL-2 melanoma
SK-MEL-28 melanoma = system: SK-MEL-28 melanoma
SK-MEL-5 melanoma = system: SK-MEL-5 melanoma
SK-OV-3 ovarian = system: SK-OV-3 ovarian
SN12C renal = system: SN12C renal
SNB-19 CNS = system: SNB-19 CNS
SR leukemia = system: SR leukemia
T-47D breast = system: T-47D breast
TK-10 renal = system: TK-10 renal
U251 CNS = system: U251 CNS
UACC-257 melanoma = system: UACC-257 melanoma
UACC-62 melanoma = system: UACC-62 melanoma
UO-31 renal = system: UO-31 renal
BT-549 breast = system: BT-549 breast
SNB-75 CNS = system: SNB-75 CNS
SW-620 colon = system: SW-620 colon

CC(=O)O[C@@H]1C(=O)N(c2ccccc2)[C@@H]1c1cc2ccccc2c2ccccc12
TGI (786-0 renal): > 100 µM | TGI (A498 renal): > 100 µM | TGI (A549 NSCLC): > 100 µM | TGI (ACHN renal): > 100 µM | TGI (CAKI-1 renal): 36.8 µM | TGI (CCRF-CEM leukemia): > 100 µM | TGI (COLO 205 colon): 32.3 µM | TGI (DU-145 prostate): > 100 µM | TGI (EKVX NSCLC): > 100 µM | TGI (HCC-2998 colon): 61.2 µM | TGI (HCT-116 colon): 91 µM | TGI (HCT-15 colon): > 100 µM | TGI (HL-60(TB) leukemia): 58.2 µM | TGI (HOP-62 NSCLC): > 100 µM | TGI (HOP-92 NSCLC): > 100 µM | TGI (HS 578T breast): > 100 µM | TGI (HT29 colon): > 100 µM | TGI (IGROV1 ovarian): 61.9 µM | TGI (K-562 leukemia): > 100 µM | TGI (KM12 colon): > 100 µM | TGI (LOX IMVI melanoma): 64.3 µM | TGI (M14 melanoma): > 100 µM | TGI (MALME-3M melanoma): 88.9 µM | TGI (MCF7 breast): > 100 µM | TGI (MDA-MB-231 breast): 75.1 µM | TGI (MDA-MB-435): 48.1 µM | TGI (MDA-N): > 100 µM | TGI (MOLT-4 leukemia): 56 µM | TGI (NCI-H226 lung): > 100 µM | TGI (NCI-H23 lung): > 100 µM | TGI (NCI-H460 lung): > 100 µM | TGI (NCI-H522 lung): 11.2 µM | TGI (NCI/ADR-RES ovarian): > 100 µM | TGI (OVCAR-3 ovarian): 83.4 µM | TGI (OVCAR-4 ovarian): 78.5 µM | TGI (OVCAR-5 ovarian): > 100 µM | TGI (OVCAR-8 ovarian): > 100 µM | TGI (PC-3 prostate): > 100 µM | TGI (RPMI-8226 leukemia): 82.6 µM | TGI (RXF 393 renal): 62.6 µM | TGI (SF-268 CNS): > 100 µM | TGI (SF-295 CNS): > 100 µM | TGI (SF-539 CNS): 96.9 µM | TGI (SK-MEL-2 melanoma): 40.6 µM | TGI (SK-MEL-28 melanoma): > 100 µM | TGI (SK-MEL-5 melanoma): 59.4 µM | TGI (SK-OV-3 ovarian): > 100 µM | TGI (SN12C renal): > 100 µM | TGI (SNB-19 CNS): > 100 µM | TGI (SR leukemia): 52.9 µM | TGI (T-47D breast): 85.7 µM | TGI (TK-10 renal): > 100 µM | TGI (U251 CNS): > 100 µM | TGI (UACC-257 melanoma): > 100 µM | TGI (UACC-62 melanoma): > 100 µM | TGI (UO-31 renal): 87 µM

O=C(CCCN1CCC(Nc2ccccc2)(c2nnnn2C2CCCCC2)CC1)c1ccc(F)cc1
TGI (786-0 renal): 15.9 µM | TGI (A549 NSCLC): 20.4 µM | TGI (ACHN renal): 16.7 µM | TGI (BT-549 breast): 20.4 µM | TGI (CCRF-CEM leukemia): 44.6 µM | TGI (COLO 205 colon): 4.77 µM | TGI (DU-145 prostate): 15.5 µM | TGI (EKVX NSCLC): 9.53 µM | TGI (HCC-2998 colon): 32.1 µM | TGI (HCT-116 colon): 16.4 µM | TGI (HCT-15 colon): > 100 µM | TGI (HL-60(TB) leukemia): 29.6 µM | TGI (HOP-62 NSCLC): 21.3 µM | TGI (HS 578T breast): 29.2 µM | TGI (HT29 colon): 14.6 µM | TGI (IGROV1 ovarian): 23.2 µM | TGI (K-562 leukemia): 33.9 µM | TGI (KM12 colon): 21.5 µM | TGI (LOX IMVI melanoma): > 100 µM | TGI (M14 melanoma): 3.98 µM | TGI (MALME-3M melanoma): 27.4 µM | TGI (MCF7 breast): 5.74 µM | TGI (MDA-MB-231 breast): 24.2 µM | TGI (MDA-MB-435): 19.4 µM | TGI (MDA-N): 18.1 µM | TGI (MOLT-4 leukemia): 46.2 µM | TGI (NCI-H226 lung): 36.5 µM | TGI (NCI-H23 lung): 28.8 µM | TGI (NCI-H460 lung): 35 µM | TGI (NCI-H522 lung): 19.3 µM | TGI (NCI/ADR-RES ovarian): > 100 µM | TGI (OVCAR-3 ovarian): 24 µM | TGI (OVCAR-4 ovarian): 20.5 µM | TGI (OVCAR-5 ovarian): 19.6 µM | TGI (OVCAR-8 ovarian): 68.3 µM | TGI (PC-3 prostate): 24.7 µM | TGI (RPMI-8226 leukemia): 25.1 µM | TGI (RXF 393 renal): 22.4 µM | TGI (SF-268 CNS): 9.25 µM | TGI (SF-295 CNS): 41.8 µM | TGI (SF-539 CNS): 5.66 µM | TGI (SK-MEL-2 melanoma): 23.7 µM | TGI (SK-MEL-28 melanoma): 12.3 µM | TGI (SK-MEL-5 melanoma): 3 µM | TGI (SK-OV-3 ovarian): 26.1 µM | TGI (SN12C renal): 41 µM | TGI (SNB-19 CNS): 21.4 µM | TGI (SNB-75 CNS): 21.9 µM | TGI (SR leukemia): > 100 µM | TGI (SW-620 colon): > 100 µM | TGI (TK-10 renal): 26.1 µM | TGI (U251 CNS): 18 µM | TGI (UACC-257 melanoma): 6.65 µM | TGI (UACC-62 melanoma): 23.9 µM | TGI (UO-31 renal): 12.8 µM
